Publication PMC9355975, “Functional human cell-based vascularised cardiac tissue model for biomedical research and testing” (Scientific Reports, 2022)

What was measured:
[1] = test system: cardiac tissue model (hiPSC-derived cardiomyocytes co-cultured with vascular-like network); assay: Multielectrode array (MEA) field potential recording: FPD, beating frequency, Na+ spike amplitude; type: cell-based, human; conditions: for signs of cardio activity or toxicity: negative controls, up to 30 µM; for signs of cardio activity or toxicity / effect on FPD (in words): MEA; for effect on FPD (in words): acute cumulative exposure
Protocol: Hydrophobic compounds were solubilized in DMSO as 10 mM stocks. The water-soluble compounds were solubilized in distilled water as 1 mM stocks.
Extracellular field potentials were recorded using a Multiwell-MEA-System (Multi Channel Systems) with a 20 kHz sampling frequency on days 8–9 after cardiomyocyte seeding. The temperature was set at 37 °C and the cells were supplied with 5% CO2 during the measurements. Two-minute recordings were obtained as spontaneous baseline beating, after which the cardiac tissue models were exposed to a ½ logarithmic cumulative concentration series spanning from […] of the test compounds. With 24-well plates four replicate wells and with 96-well plates eight replicate wells were used for each compound. The wash-in period between administration of the test compounds and 2-min recording was 8 min. The field potentials were recorded with Multiwell-Screen software (Multi Channel Systems) and analysed with Multiwell-Analyzer software (Multi Channel Systems). The data from the electrodes showing clear beating patterns, sodium spike voltage change over 70 µV, and a detectable T-wave were used for the analyses. Data obtained from the electrodes of one well were averaged. In the analyses, each well was treated as an individual and (the ratio of) test compound-induced changes were calculated against the recorded baseline from the same well. The data was normalized only against the baseline values, not against the vehicle control. All the field potential durations (FPD) were corrected against the changes in beating frequency using the Fridericia formula cFPD=FPD/RR3 , where RR is the RR interval.
For each compound, we analysed the effects on FPD, beat rate and amplitude. We selected one MEA parameter based on their mechanism of action. FPD, that corresponds to the QT interval[59], was selected for compounds that are known to affect the QT time e.g., by targeting hERG or Ca^2+ channels. Beat rate was selected for compounds that target adrenergic receptors.
For the electrophysiology measurements, the chosen sample size was either 4 when using 24-well MEA plates with 12 electrodes per well and 8 when using 96-well MEA plates with 3 electrodes per well. The reported n stands for the number of wells (cardiac tissue models) per repetition of the study. Each test was repeated 3 times using 4–8 parallels in each concentration. Excel (Microsoft) was used for to calculate the p-values using Student’s two-tailed t-test. EC50 and IC50 values were calculated using non-linear fit four-parameters logistic equation Prism version 5.0. (GraphPad). The baseline values were used as Emin.

[2] = test system: QT interval; conditions: cited from earlier work
[3] = test system: QT interval; conditions: cited from earlier work; remark: listed apart in the source
[4] = free plasma concentration from the literature; cited from earlier work
[5] = test system: hiPSC-derived cardiomyocytes; parameters: method as in PMID 28456566; conditions: cited from earlier work
[6] = test system: sodium channels; parameters: method as in PMID 10069689; conditions: canine atrial myocytes; cited from earlier work
[7] = test system: calcium channels; parameters: method as in PMID 17078945; conditions: cited from earlier work
[8] = parameters: method as in PMID 6599419; conditions: humans; cited from earlier work

Row | Structure (SMILES) | Therapeutic concentration [4] | other results
1 | CC(=O)Oc1ccccc1C(=O)O [Acetyl salicylic acid] | – | signs of cardio activity or toxicity [1]: None
2 | COc1cc2nc(N(C)CCCNC(=O)C3CCCO3)nc(N)c2cc1OC (stereo not drawn) [Alfuzosin] | 56[21] nM | increase in FPD ([1]; at 300 nM, statistically significant): 20%; concentration that significantly prolongs the QT interval in vitro [2]: 300 nM; QT effect in patients ([3]; at high doses (100 nM)): mild QT increase
3 | COc1ccc(CCN2CCC(Nc3nc4ccccc4n3Cc3ccc(F)cc3)CC2)cc1 [Astemizole] | 8[21] nM | –
4 | COc1cc(N)c(Cl)cc1C(=O)NC1CCN(CCCOc2ccc(F)cc2)CC1OC (stereo not drawn) [Cisapride] | 2.5[29] nM | –
5 | C[C@H]1O[C@@H](O[C@H]2[C@@H](O)C[C@H](O[C@H]3[C@@H](O)C[C@H](O[C@H]4CC[C@@]5(C)[C@H](CC[C@@H]6[C@@H]5C[C@@H](O)[C@]5(C)[C@@H](C7=CC(=O)OC7)CC[C@]65O)C4)O[C@@H]3C)O[C@@H]2C)C[C@H](O)[C@@H]1O [Digoxin] | 2.8[61] nM | –
6 | CN(CCOc1ccc(NS(C)(=O)=O)cc1)CCc1ccc(NS(C)(=O)=O)cc1 [Dofetilide] | 2[60] nM | –
7 | NCCc1ccc(O)c(O)c1 [Dopamine] | 300 (20% increase) nM | –
8 | COc1cccc2c1C(=O)c1c(O)c3c(c(O)c1C2=O)C[C@@](O)(C(=O)CO)C[C@@H]3O[C@H]1C[C@H](N)[C@H](O)[C@H](C)O1 [Doxorubicin] | – | changes to FPD, BPM or amplitude ([1]; short-term experiments, exposures up to 2 h): could not detect any; apoptosis of hiPSC-derived cardiomyocytes ([5]; after two days of exposure): increase; effect on FPD or beat rate ([5]; short exposures): not to affect
9 | CNC[C@H](O)c1ccc(O)c(O)c1 [Epinephrine] | 2.64[62] nM | –
10 | O=C(CCCN1CCC(O)(c2ccc(Cl)cc2)CC1)c1ccc(F)cc1 [Haloperidol] | 45[60] nM | –
11 | CCCCCCc1ccc(O)cc1O [Hexylresorcinol] | – | signs of cardio activity or toxicity [1]: None
12 | CC(C)Cc1ccc(C(C)C(=O)O)cc1 (stereo not drawn) [Ibuprofen] | – | signs of cardio activity or toxicity [1]: None
13 | CC(C)NCC(O)c1ccc(O)c(O)c1 (stereo not drawn) [Isoprenaline] | 0.84[63] nM | –
14 | COC(=O)C1=C(C)NC(C)=C(C(=O)OC(C)C)C1c1cccc2nonc12 (stereo not drawn) [Isradipine] | 80[61] nM | –
15 | C[C@@H]1CC(=O)NN=C1c1ccc(NN=C(C#N)C#N)cc1 [Levosimendan] | 129[21] nM | –
16 | CCN(CC)CC(=O)Nc1c(C)cccc1C [Lidocaine] | 2500[29] nM | –
17 | COc1c(N2C[C@@H]3CCCN[C@@H]3C2)c(F)cc2c(=O)c(C(=O)O)cn(C3CC3)c12 [Moxifloxasin] | 5600[60] nM | –
18 | COC(=O)C1=C(C)NC(C)=C(C(=O)OC)C1c1ccccc1[N+](=O)[O-] [Nifedipine] | 190[60] nM | –
19 | N=C(N)c1ccc(OCCCCCOc2ccc(C(=N)N)cc2)cc1 [Pentamidine] | 190[61] nM | effect on FPD (in words) [1]: could not detect any significant FPD prolongation
20 | O=c1[nH]c2ccccc2n1C1CCN(CCCC(c2ccc(F)cc2)c2ccc(F)cc2)CC1 [Pimozide] | 3.7[61] nM | –
21 | CC(C)NCC(O)COc1cccc2ccccc12 (stereo not drawn) [Propranolol] | 1095[64] nM | –
22 | C=C[C@H]1C[N@@]2CC[C@H]1C[C@@H]2[C@@H](O)c1ccnc2ccc(OC)cc12 [Quinidine] | 3240[60] nM | –
23 | COc1ccccc1OCC(O)CN1CCN(CC(=O)Nc2c(C)cccc2C)CC1 (stereo not drawn) [Ranolazine] | 6010[21] nM | –
24 | CC(C)NCC(O)c1ccc(NS(C)(=O)=O)cc1 (stereo not drawn) [Sotalol] | 13,000[60] nM | –
25 | CC(C)(C)c1ccc(C(O)CCCN2CCC(C(O)(c3ccccc3)c3ccccc3)CC2)cc1 (stereo not drawn) [Terfenadine] | 300[21] nM | effect on FPD (in words) [1]: FPD shortening; increase in FPD before the shortening of FPD initiated ([1]; non-significant): 10%; IC50 [6]: 930 nM; IC50 [7]: 185 nM
26 | CC(CC(c1ccccc1)c1ccccc1)NC(C)(C)C (stereo not drawn) [Terodiline] | 1800[60] nM | EC50 ([1]; Homo sapiens, Cardiomyocyte, as rounded in the discussion, read-out: amplitude EC50 concentration): 2600 nM; effect on FPD (in words) [1]: did not detect the expected FPD prolongation; toxic plasma concentration [8]: 2.1 µM
27 | Cc1ccc(O)c([C@H](CCN(C(C)C)C(C)C)c2ccccc2)c1 [Tolterodine] | 5 nM | in vivo concentration corresponding to the QT-prolonging concentration in vitro ([2]; very high concentration in vitro): 340 nM; QT interval in clinical use [3]: does not prolong the QT interval
